Results on 32 compounds are retold here after US20050143382A1 (4SC AG, priority 2003, published 2005).

Holding throughout (format): biochemical
What all share (conditions): recombinant human kinase, 1 μM ATP

The target in one assay is T1, IGF-1 R (Homo sapiens, UniProt P08069).
T1 construct: made in house; host or cells: Sf9 insect cells (baculovirus)
The experiment in a line: 33PanQinase protein kinase activity assay, IGF-1 R. The method, then:
(§1) The effect of the farazanopyrazine derivatives was tested on recombinant, human protein kinases. All protein kinases were expressed in Sf9 insect cells as human recombinant GST-fusion proteins or as His-tagged proteins by means of the baculovirus expression system. Protein kinases were purified by affinity chromatography using either GSH-agarose or Ni-NTH-agarose. The purity and identity of each was checked by SDS-PAGE/silver staining and by western blot analysis with specific antibodies.
(§2) A proprietary protein kinase assay (^33 PanQinase® Activity Assay) was used for measuring the kinase activity. All kinase assays were performed in 96-well FlashPlates™ in a 50 μl reaction volume. The assay for all enzymes contained 60 mM HEPES-NaOH, pH 7.5, 3 mM MgCl2, 3 mM MnCl2, 3 μM Na-orthovanadate, 1.2 mM DTT, 50 μg/ml PEG20000 and 1 μM [γ-^33P]-ATP (approx. 5×10^5 cpm per well).
(§3) The reaction cocktails were incubated at 30° C. for 80 minutes. The reaction was stopped with 50 μl of 2% (v/v) H3PO4, plates were aspirated and washed two times with 200 μl of 0.9% (w/v) NaCl. Incorporation of 33Pi was determined with a microplate scintillation counter. All assays were performed with a BeckmanCoulter/Sagian robotic system.

The target of the next assay is T2, VEGF-R2 (Homo sapiens, UniProt P35968).
T2 construct: made in house; host or cells: Sf9 insect cells (baculovirus)
The experiment in a line: 33PanQinase protein kinase activity assay, VEGF-R2. The method, then:
as §1, §2, §3

The next assay deals with T3, SRC kinase (Homo sapiens, UniProt P12931).
T3 construct: made in house; host or cells: Sf9 insect cells (baculovirus)
Put plainly: 33PanQinase protein kinase activity assay, SRC. The method, then: as §1, §2, §3

Each structure is given as a SMILES string.

T1 sequence (P08069 31-1367): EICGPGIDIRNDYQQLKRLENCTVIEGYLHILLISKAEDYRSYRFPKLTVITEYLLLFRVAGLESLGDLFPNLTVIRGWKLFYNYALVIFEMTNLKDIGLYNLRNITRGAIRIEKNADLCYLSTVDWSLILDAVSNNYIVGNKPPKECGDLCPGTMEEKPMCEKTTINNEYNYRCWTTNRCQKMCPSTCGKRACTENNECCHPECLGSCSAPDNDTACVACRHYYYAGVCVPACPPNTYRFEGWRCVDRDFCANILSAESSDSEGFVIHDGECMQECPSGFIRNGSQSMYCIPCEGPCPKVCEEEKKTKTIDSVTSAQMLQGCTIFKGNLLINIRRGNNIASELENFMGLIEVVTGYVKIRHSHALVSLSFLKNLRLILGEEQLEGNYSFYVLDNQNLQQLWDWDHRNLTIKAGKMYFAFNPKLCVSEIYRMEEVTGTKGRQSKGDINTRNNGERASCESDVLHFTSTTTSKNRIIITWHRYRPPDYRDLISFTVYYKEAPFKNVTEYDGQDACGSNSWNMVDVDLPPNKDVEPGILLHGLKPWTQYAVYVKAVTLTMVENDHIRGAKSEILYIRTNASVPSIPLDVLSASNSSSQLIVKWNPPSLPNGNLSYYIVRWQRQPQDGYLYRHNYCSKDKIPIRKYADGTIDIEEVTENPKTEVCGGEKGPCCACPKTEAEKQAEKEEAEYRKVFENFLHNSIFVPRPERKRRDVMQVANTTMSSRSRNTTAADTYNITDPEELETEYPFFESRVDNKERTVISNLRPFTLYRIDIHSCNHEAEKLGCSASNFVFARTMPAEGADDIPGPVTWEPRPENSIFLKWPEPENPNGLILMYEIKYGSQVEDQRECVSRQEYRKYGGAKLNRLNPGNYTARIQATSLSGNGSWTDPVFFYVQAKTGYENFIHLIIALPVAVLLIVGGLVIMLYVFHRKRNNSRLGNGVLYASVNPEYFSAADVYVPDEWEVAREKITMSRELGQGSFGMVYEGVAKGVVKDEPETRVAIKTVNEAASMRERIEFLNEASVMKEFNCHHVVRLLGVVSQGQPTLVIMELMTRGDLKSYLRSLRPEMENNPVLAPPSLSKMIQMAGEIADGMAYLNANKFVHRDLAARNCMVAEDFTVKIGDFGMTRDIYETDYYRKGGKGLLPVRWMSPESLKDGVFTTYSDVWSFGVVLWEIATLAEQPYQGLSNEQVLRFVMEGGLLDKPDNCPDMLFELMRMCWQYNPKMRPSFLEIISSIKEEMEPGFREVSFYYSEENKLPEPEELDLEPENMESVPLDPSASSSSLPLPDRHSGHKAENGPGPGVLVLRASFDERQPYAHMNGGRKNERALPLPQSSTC
T2 sequence (P35968 20-1356): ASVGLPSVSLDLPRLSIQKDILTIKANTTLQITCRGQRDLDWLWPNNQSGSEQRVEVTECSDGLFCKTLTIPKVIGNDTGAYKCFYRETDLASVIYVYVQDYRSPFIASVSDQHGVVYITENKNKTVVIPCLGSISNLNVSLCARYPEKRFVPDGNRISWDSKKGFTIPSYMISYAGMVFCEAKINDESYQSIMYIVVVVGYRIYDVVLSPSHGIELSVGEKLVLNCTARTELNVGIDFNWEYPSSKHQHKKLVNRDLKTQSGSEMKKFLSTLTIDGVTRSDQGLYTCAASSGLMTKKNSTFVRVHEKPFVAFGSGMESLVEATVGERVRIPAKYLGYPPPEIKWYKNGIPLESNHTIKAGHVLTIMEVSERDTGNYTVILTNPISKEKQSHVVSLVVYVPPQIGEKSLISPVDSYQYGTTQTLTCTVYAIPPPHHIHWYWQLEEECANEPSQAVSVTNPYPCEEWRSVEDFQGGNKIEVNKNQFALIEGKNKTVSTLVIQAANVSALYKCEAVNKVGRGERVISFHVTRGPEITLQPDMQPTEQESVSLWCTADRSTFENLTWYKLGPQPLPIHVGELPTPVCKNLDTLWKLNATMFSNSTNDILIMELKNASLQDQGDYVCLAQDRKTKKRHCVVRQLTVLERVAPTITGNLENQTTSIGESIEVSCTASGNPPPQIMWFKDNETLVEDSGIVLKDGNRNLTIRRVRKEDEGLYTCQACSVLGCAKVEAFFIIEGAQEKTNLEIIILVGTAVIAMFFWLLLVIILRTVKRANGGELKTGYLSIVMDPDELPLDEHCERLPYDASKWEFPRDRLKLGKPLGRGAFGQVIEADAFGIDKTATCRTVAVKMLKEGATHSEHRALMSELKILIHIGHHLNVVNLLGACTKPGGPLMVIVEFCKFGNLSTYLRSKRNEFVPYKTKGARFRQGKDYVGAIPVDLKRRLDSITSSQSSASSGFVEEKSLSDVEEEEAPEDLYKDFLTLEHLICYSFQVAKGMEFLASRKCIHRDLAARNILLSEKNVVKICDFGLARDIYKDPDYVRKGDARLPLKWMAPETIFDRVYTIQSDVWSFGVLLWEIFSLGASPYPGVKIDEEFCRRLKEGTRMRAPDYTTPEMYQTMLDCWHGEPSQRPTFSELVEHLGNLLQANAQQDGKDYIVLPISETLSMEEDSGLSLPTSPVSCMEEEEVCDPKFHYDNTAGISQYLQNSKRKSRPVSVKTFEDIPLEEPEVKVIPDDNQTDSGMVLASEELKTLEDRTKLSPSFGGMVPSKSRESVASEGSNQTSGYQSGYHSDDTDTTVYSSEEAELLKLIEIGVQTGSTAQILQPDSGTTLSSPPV
T3 sequence (P12931 whole entry): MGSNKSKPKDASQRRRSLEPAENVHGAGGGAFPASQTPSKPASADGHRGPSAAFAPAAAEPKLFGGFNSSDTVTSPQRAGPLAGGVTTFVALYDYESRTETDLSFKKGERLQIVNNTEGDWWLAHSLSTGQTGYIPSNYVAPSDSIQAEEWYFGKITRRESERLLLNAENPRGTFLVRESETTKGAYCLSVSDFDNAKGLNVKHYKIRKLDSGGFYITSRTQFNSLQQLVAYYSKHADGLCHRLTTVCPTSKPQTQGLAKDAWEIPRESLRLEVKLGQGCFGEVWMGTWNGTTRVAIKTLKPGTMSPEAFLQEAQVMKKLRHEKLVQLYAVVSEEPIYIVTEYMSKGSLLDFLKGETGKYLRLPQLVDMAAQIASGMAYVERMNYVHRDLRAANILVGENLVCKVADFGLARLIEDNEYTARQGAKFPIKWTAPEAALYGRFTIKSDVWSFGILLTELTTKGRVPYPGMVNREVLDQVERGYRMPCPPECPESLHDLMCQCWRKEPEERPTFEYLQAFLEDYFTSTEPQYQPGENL

Turning to `Cc1cccc(Nc2nc3nonc3nc2NN=Cc2ccc(-c3ccc(Cl)c(C(=O)O)c3)o2)c1C` [Example 2], the IC50 (in general, the concentration at which inhibition is half-maximal) at IGF-1 R was < 1000 nM; at VEGF-R2, < 2000 nM; on SRC kinase, < 1000 nM.

Regarding `Oc1c(Br)cc(Cl)cc1C=NNc1nc2nonc2nc1Nc1ccc(Cl)c(Cl)c1` [Example 14], the results for the IC50 at IGF-1 R, at VEGF-R2 and at SRC kinase were < 1000 nM, < 2000 nM and < 1000 nM, respectively.

For the compound `Fc1ccc(Nc2nc3nonc3nc2NN=Cc2ccc(-c3ccc(Cl)cc3Cl)o2)cc1` [Example 15, (6-{N′-[5-(2,4-Dichloro-phenyl)-furan-2-ylmethylene]-hydrazino}-[1,2,5]oxadiazolo [3,4-b]pyrazin-5-yl)-(4-fluoro-phenyl)-amine], the values for the IC50 at VEGF-R2 and at SRC kinase were < 2000 nM and < 1000 nM, respectively.

In the case of `Cc1cc(C)c([N+](=O)[O-])cc1-c1ccc(C=NNc2nc3nonc3nc2Nc2ccccc2F)o1` [Example 29, (6-{N′-[5-(2,4-Dimethyl-5-nitro-phenyl)-furan-2-ylmethylene]-hydrazino}-[1,2,5]oxadiazolo[3,4-b]pyrazin-5-yl)-(2-fluoro-phenyl)-amine], the IC50 on IGF-1 R and at SRC kinase was < 1000 nM each time.

For `Oc1c(Br)cc(Br)cc1C=NNc1nc2nonc2nc1Nc1ccc(Cl)cc1` [Example 30], the half-maximal inhibitory concentration (IC50) on IGF-1 R and at SRC kinase was < 1000 nM each time.

As to `Cc1ccc(Nc2nc3nonc3nc2NN=Cc2ccc(-c3cc(C)cc([N+](=O)[O-])c3C)o2)cc1` [Example 33, (6-[N′-[5-(2,5-Dimethyl-3-nitro-phenyl)-furan-2-ylmethylene]-hydrazino}-[1,2,5]oxadiazolo[3,4-b]pyrazin-5-yl)-p-tolyl-amine], the IC50 on SRC kinase was < 1000 nM.

Take `Oc1c(I)cc(I)cc1C=NNc1nc2nonc2nc1Nc1cccc(Br)c1` [Example 35]: the IC50 was < 1000 nM at IGF-1 R, < 2000 nM on VEGF-R2 and < 1000 nM on SRC kinase.

For the compound `O=[N+]([O-])c1cc(-c2ccc(C=NNc3nc4nonc4nc3Nc3cccc(C(F)(F)F)c3)o2)ccc1Cl` [Example 36, (6-{N-[5-(4-Chloro-3-nitro-phenyl)-furan-2-ylmethylene]-hydrazino}-[1,2,5]oxadiazolo [3,4-b]pyrazin-5-yl)-(3-trifluoromethyl-phenyl)-amine], the IC50 at IGF-1 R and at SRC kinase was < 1000 nM throughout.

For the compound `CCOC(=O)c1ccc(Nc2nc3nonc3nc2NN=Cc2cccc([N+](=O)[O-])c2O)cc1` [Example 37, 4-{6-[N′-(2-Hydroxy-3-nitro-benzylidene)-hydrazino]-[1,2,5]oxadiazolo[3,4-b]pyrazin-5-ylamino}-benzoic Acid Ethyl Ester], at SRC kinase, the IC50 is < 1000 nM.

As for `O=[N+]([O-])c1ccc(-c2ccc(C=NNc3nc4nonc4nc3Nc3ccc(F)cc3)o2)cc1` [Example 39, (4-Fluoro-phenyl)-(6-{N′-[5-(4-nitro-phenyl)-furan-2-ylmethylene]-hydrazino}-[1,2,5]oxadiazolo[3,4-b]pyrazin-5-yl)-amine], the 50% inhibitory concentration (IC50) at IGF-1 R and on SRC kinase was < 1000 nM in each case.

For the compound `O=c1[nH]c2ccc(Nc3nc4nonc4nc3NN=Cc3cc(I)cc(I)c3OCc3ccc(Cl)cc3Cl)cc2[nH]1` [Example 55, 5-(6-{N′-[2-(2,4-Dichloro-benzyloxy)-3,5-diiodo-benzylidene]-hydrazino}-[1,2,5]oxadiazolo[3,4-b]pyrazin-5-ylamino)-1,3-dihydro-benzoimidazol-2-one], the IC50 on IGF-1 R and at SRC kinase was < 1000 nM in each case.

With `C(=NNc1nc2nonc2nc1Nc1ccccc1)c1cc2ccccc2o1` [Example 88, [6-(N′-Benzofuran-2-ylmethylene-hydrazino)-(1,2,5]oxadiazolo[3,4-b]pyrazin-5-yl]-phenyl-amine], the IC50 on SRC kinase is < 1000 nM.

Turning to `O=[N+]([O-])c1cccc(-c2ccc(C=NNc3nc4nonc4nc3Nc3ccccc3)o2)c1` [Example 90, (6-{N′-[5-(3-Nitro-phenyl)-furan-2-ylmethylene]-hydrazino}-[1,2,5]oxadiazolo [3,4-b]pyrazin-5-yl)-phenyl-amine], at SRC kinase, the IC50 is < 1000 nM.

As for `O=[N+]([O-])c1cccc(-c2ccc(C=NNc3nc4nonc4nc3Nc3ccc(F)cc3)o2)c1` [Example 135, (4-Fluoro-phenyl)-(6-{N′-[5-(3-nitro-phenyl)-furan-2-ylmethylene]-hydrazino}-[1,2,5]oxadiazolo [3,4-b]pyrazin-5-yl)-amine], the concentration for half-maximal inhibition (IC50) at IGF-1 R and on SRC kinase was < 1000 nM throughout.

`O=C(O)c1ccc(-c2ccc(C=NNc3nc4nonc4nc3Nc3ccc(F)cc3)o2)cc1` [Example 139]: the IC50 on IGF-1 R and on SRC kinase was < 1000 nM in each case.

As for `O=C(O)c1ccc(C=NNc2nc3nonc3nc2Nc2cccc(Cl)c2)cc1` [Example 143], on IGF-1 R, the IC50 is < 1000 nM.

As for `Oc1c(Br)cc(Br)cc1C=NNc1nc2nonc2nc1Nc1cccc(Cl)c1` [Example 151], the IC50 at IGF-1 R and on SRC kinase was < 1000 nM throughout.

As to `COc1cc(Br)cc(C=NNc2nc3nonc3nc2Nc2cccc(Cl)c2)c1O` [Example 152], the IC50 at IGF-1 R was < 1000 nM; at VEGF-R2, < 2000 nM; on SRC kinase, < 1000 nM.

In the case of `O=[N+]([O-])c1cccc(-c2ccc(C=NNc3nc4nonc4nc3Nc3cccc(Cl)c3)o2)c1` [Example 155, (3-Chloro-phenyl)-(6-{N′-[5-(3-nitro-phenyl)-furan-2-ylmethylene]-hydrazino}-[1,2,5]oxadiazolo[3,4-b]pyrazin-5-yl)-amine], the IC50 at IGF-1 R is < 1000 nM; on VEGF-R2 it was < 2000 nM; at SRC kinase, < 1000 nM.

In the case of `COc1ccc(O)c(C=NNc2nc3nonc3nc2Nc2ccc(F)c(Cl)c2)c1` [Example 167], at SRC kinase, the IC50 is < 1000 nM.

As for `Fc1ccc(Nc2nc3nonc3nc2NN=Cc2cc3ccccc3o2)cc1Cl` [Example 172, [6-(N′-Benzofuran-2-ylmethylene-hydrazino)-[1,2,5]oxadiazolo[3,4-b]pyrazin-5-yl]-(3-chloro-4-fluoro-phenyl)-amine], the results for the IC50 at IGF-1 R, at VEGF-R2 and on SRC kinase were < 1000 nM, < 2000 nM and < 1000 nM, respectively.

Regarding `O=[N+]([O-])c1cccc(-c2ccc(C=NNc3nc4nonc4nc3Nc3ccc(F)c(Cl)c3)o2)c1` [Example 174, (3-Chloro-4-fluoro-phenyl)-(6-{N′-[5-(3-nitro-phenyl)-furan-2-ylmethylene]-hydrazino}-[1,2,5]oxadiazolo[3,4-b]pyrazin-5-yl)-amine], the IC50 was < 1000 nM on IGF-1 R, < 2000 nM on VEGF-R2 and < 1000 nM on SRC kinase.

Regarding `Fc1ccc(Nc2nc3nonc3nc2NN=Cc2ccc(-c3ccccc3)o2)cc1Cl` [Example 175, (3-Chloro-4-fluoro-phenyl)-{6-[N′-(5-phenyl-furan-2-ylmethylene)-hydrazino]-[1,2,5]oxadiazolo [3,4-b]pyrazin-5-yl}-amine], the IC50 at IGF-1 R and at SRC kinase was < 1000 nM in each case.

`NC(=O)c1cccc(-c2ccc(C=NNc3nc4nonc4nc3Nc3ccc(F)c(Cl)c3)o2)c1` [Example 178]: the IC50 is < 1000 nM on IGF-1 R, < 2000 nM on VEGF-R2 and < 1000 nM on SRC kinase.

On to `O=C(O)c1ccc(-c2ccc(C=NNc3nc4nonc4nc3Nc3ccc(F)c(Cl)c3)o2)cc1` [Example 179], for which the IC50 is < 1000 nM at IGF-1 R, < 2000 nM on VEGF-R2 and < 1000 nM at SRC kinase.

Turning to `Fc1ccc(Nc2nc3nonc3nc2NN=Cc2ccc(-c3ccc(Cl)cc3)o2)cc1Cl` [Example 180, (3-Chloro-4-fluoro-phenyl)-(6-{N′-[5-(4-chloro-phenyl)-furan-2-yl-methylene]-hydrazino}-[1,2,5]oxadiazolo [3,4-b]pyrazin-5-yl)-amine], the IC50 on IGF-1 R was < 1000 nM; on VEGF-R2, < 2000 nM; at SRC kinase, < 1000 nM.

With `O=C1Nc2ccccc2C1=NNc1nc2nonc2nc1Nc1ccc(F)c(Cl)c1` [Example 182, 3-{1[6-(3-Chloro-4-fluoro-phenylamino)-[1,2,5]oxadiazolo[3,4-b]pyrazin-5-yl]-hydrazono}-1,3-dihydro-indol-2-one], the 50% inhibitory concentration (IC50) at IGF-1 R is < 1000 nM; at VEGF-R2, < 2000 nM; at SRC kinase, < 1000 nM.

For `O=C(O)c1cccc(C=NNc2nc3nonc3nc2Nc2ccc(Cl)c(Cl)c2)c1` [Example 186], the IC50 at IGF-1 R was < 1000 nM; at VEGF-R2, < 2000 nM; at SRC kinase, < 1000 nM.

Turning to `COc1ccc(O)c(C=NNc2nc3nonc3nc2Nc2ccc(Cl)c(Cl)c2)c1` [Example 191], the IC50 at IGF-1 R is < 1000 nM; on VEGF-R2, < 2000 nM; on SRC kinase, < 1000 nM.

As for `COc1cccc(C=NNc2nc3nonc3nc2Nc2ccc(Cl)c(Cl)c2)c1O` [Example 192], the IC50 at IGF-1 R was < 1000 nM.

Consider `Clc1ccc(Nc2nc3nonc3nc2NN=Cc2ccc(-c3ccccc3)o2)cc1Cl` [Example 195, (3,4-Dichloro-phenyl)-{6-[N′-(5-phenyl-furan-2-ylmethylene)-hydrazino]-[1,2,5]oxadiazolo[3,4-b]pyrazin-5-yl}-amine], for which the IC50 at SRC kinase is < 1000 nM.

Turning to `Clc1ccc(Nc2nc3nonc3nc2NN=Cc2ccco2)cc1Cl` [Example 197, (3,4-Dichloro-phenyl)-[6-(N′-furan-2-ylmethylene-hydrazino)-[1,2,5]-oxadiazolo[3,4-b]pyrazin-5-yl]-amine], the IC50 at IGF-1 R and at SRC kinase was < 1000 nM throughout.
